Columns and labels:
Assay in all cases: fluorogenic AFC peptide substrate assay
Format in all cases: biochemical
[1] = molecular target: T1, human Casp5 (Homo sapiens, UniProt P51878); conditions: 10 µM Ac-WEHD-AFC, pH 7.2, 37 °C, 10 mM DTT
T1 construct: recombinant caspase, commercial (BioVision)
T1 sequence (P51878 137-327): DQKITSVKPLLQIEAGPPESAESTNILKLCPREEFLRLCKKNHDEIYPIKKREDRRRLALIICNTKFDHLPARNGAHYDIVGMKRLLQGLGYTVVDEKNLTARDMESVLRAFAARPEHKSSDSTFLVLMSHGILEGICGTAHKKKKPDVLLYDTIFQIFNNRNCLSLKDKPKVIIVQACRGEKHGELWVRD
T1 sequence (P51878 347-434): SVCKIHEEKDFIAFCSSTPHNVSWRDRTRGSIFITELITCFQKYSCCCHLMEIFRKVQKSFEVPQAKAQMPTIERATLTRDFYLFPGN

[2] = molecular target: T2, human Casp9 (Homo sapiens, UniProt P55211); conditions: 10 µM Ac-LEHD-AFC, pH 7.2, 37 °C, 10 mM DTT
T2 construct: recombinant caspase, commercial (BioVision)
T2 sequence (P55211 1-315): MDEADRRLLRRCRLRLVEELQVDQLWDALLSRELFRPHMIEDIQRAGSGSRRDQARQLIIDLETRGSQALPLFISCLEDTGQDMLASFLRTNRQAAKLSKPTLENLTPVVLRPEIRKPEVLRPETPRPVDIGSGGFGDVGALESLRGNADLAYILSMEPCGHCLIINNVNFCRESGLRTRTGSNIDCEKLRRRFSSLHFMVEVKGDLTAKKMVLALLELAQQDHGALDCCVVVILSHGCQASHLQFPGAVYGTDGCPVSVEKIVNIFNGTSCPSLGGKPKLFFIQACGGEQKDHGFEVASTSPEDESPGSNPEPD
T2 sequence (P55211 331-416): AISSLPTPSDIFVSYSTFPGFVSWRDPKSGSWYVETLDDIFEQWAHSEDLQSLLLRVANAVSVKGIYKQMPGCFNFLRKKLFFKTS

[3] = molecular target: T3, human Casp1 (Homo sapiens, UniProt P29466)
T3 construct: recombinant caspase, commercial (BioVision)
T3 sequence (P29466 120-297): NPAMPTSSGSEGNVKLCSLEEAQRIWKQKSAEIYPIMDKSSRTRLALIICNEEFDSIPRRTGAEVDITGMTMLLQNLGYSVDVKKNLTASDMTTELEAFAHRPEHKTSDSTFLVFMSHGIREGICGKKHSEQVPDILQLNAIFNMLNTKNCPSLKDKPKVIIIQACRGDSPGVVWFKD
T3 sequence (P29466 317-404): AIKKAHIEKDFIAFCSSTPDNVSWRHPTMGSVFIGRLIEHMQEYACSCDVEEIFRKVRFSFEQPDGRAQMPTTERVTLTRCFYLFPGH

[4] = molecular target: T4, mouse recombinant Casp1 (Mus musculus, UniProt P29452)
T4 construct: recombinant caspase, commercial
T4 sequence (P29452 119-296): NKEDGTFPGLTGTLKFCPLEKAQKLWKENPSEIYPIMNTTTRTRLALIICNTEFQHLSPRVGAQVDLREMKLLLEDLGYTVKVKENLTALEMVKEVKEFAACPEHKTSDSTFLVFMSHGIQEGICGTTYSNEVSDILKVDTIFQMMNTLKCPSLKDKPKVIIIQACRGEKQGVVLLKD
T4 sequence (P29452 315-402): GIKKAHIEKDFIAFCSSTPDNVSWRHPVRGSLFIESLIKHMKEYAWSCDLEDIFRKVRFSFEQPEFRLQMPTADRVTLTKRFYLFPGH

[5] = molecular target: T5, human Casp10 (Homo sapiens, UniProt Q92851); conditions: 10 µM Ac-IETD-AFC, pH 7.2, 37 °C, 10 mM DTT
T5 construct: recombinant caspase, commercial (BioVision)
T5 sequence (Q92851 220-415): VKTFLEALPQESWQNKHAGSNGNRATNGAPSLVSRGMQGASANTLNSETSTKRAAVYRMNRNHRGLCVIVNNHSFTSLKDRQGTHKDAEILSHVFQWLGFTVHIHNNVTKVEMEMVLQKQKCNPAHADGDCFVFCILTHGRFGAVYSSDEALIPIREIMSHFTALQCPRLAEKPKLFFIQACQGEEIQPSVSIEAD
T5 sequence (Q92851 416-521): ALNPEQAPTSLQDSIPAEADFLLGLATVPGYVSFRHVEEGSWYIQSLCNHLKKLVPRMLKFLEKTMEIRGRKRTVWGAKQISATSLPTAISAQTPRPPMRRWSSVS

[6] = molecular target: T6, human Casp8 (Homo sapiens, UniProt Q14790); conditions: 10 µM Ac-IETD-AFC, pH 7.2, 37 °C, 10 mM DTT
T6 construct: recombinant caspase, commercial (BioVision)
T6 sequence (Q14790 217-374): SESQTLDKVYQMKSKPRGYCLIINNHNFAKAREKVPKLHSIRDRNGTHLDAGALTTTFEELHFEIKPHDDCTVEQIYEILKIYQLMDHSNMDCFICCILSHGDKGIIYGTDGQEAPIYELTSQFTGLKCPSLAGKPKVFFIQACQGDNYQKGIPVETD
T6 sequence (Q14790 385-479): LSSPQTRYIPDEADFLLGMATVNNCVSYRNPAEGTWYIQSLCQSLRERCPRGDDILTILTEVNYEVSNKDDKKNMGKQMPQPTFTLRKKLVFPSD

IC50 [3]	IC50 [4]	Compound	IC50 [1]	IC50 [2]	IC50 [5]	IC50 [6]
9.91 nM	18 nM	CC(C)(C)[C@H](NC(=O)c1ccc(N)c(Cl)c1)C(=O)N1CCC[C@H]1C(=O)N[C@H](C=O)CC(=O)O [VRT-043198]	Casp5, Casp8, Casp9 and Casp10, which were inhibited in the nanomolar range in vitro	Casp5, Casp8, Casp9 and Casp10, which were inhibited in the nanomolar range in vitro	Casp5, Casp8, Casp9 and Casp10, which were inhibited in the nanomolar range in vitro	Casp5, Casp8, Casp9 and Casp10, which were inhibited in the nanomolar range in vitro
–	–	CCO[C@@H]1OC(=O)C[C@@H]1NC(=O)[C@@H]1CCCN1C(=O)[C@@H](NC(=O)c1ccc(N)c(Cl)c1)C(C)(C)C [VX-765]	Casp5, Casp8, Casp9 and Casp10, which were inhibited in the nanomolar range in vitro	Casp5, Casp8, Casp9 and Casp10, which were inhibited in the nanomolar range in vitro	Casp5, Casp8, Casp9 and Casp10, which were inhibited in the nanomolar range in vitro	Casp5, Casp8, Casp9 and Casp10, which were inhibited in the nanomolar range in vitro

From paper PMC6156230, “Caspase-1 inhibition alleviates cognitive impairment and neuropathology in an Alzheimer’s disease mouse model” (Nature Communications, 2018)
